# Results reported in patent US20130266636A1, “METHODS FOR BLOCKING CELL PROLIFERATION AND TREATING DISEASES AND CONDITIONS RESPONSIVE TO CELL GROWTH INHIBITION” (THE REGENTS OF THE UNIVERSITY OF CALIFORNIA, priority 2010, published 2013).
# “Also recorded” adds a separate entry of the source.
# What was measured:
# NCI-60 panel = NCI-60 panel growth inhibition, overall; assay type: cell-based, human
# Description: FIG. 8 illustrates […] panel showing the half maximal growth inhibitory concentration of KG5 in […] human cancer cell lines.
# Table 1 summarizes KG5's effect in 60 NCI cancer cell lines: the NCI-60 panel showing the half maximal growth inhibitory concentration of KG5 and the RAS and BRAF status in 60 human cancer cell lines.
# XPA-1 cells = assay: Cell cycle analysis, bright field and confocal microscopy of XPA-1 cells; assay type: cell-based, human
# Method: FIG. 38. […] FIG. 38(a) Bright field images (scale bar, 20 μm), cell cycle analysis and confocal microscopy images (scale bar, 10 μm, laminB in red and DNA in blue) of XPA-1 cells treated for 20 hours with the allosteric RAF inhibitor KG5, the ATP-competitive inhibitor Sorafenib, the MEK inhibitor PD0325901, the control compound KG1 at 5 μM or paclitaxel at 200 nM. Cells were harvested after 20 hours and the cell cycle stage was determined by flow cytometry and confocal microscopy. White arrows indicate cells arrested at pro-metaphase. Scale bars, 10 μm. FIG. 38(b) Representative confocal microscopy images of untreated XPA-1 tumor cells undergoing mitosis (left image) and XPA-1 cell arrested with KG5 at pro-metaphase (right image). Cells were stained with α-tubulin in red and DNA in blue. Scale bar, 10 μm. FIG. 38(c) XPA-1 cells transfected with a vector control or active MEK were treated with 1 μM KG5 for 20 hours or left untreated and the G2/M population was quantified by flow cytometry. Error bars represent s.d. (n=3); * two tailed p value=0.00063 using a Mann Whitney U test. FIG. 38(d) Immunoblot analysis of XPA-1 cells untreated or treated with 1 μM KG5 for 18 hours. Data are representative of four independent experiments. […] Error bars represent s.d. (n=3); * two tailed p value=0.010 using a Mann Whitney U test. Inset, Immunoblot analysis of HCT-116 cells untreated or treated with 1 μM KG5 for 18 hours.
# FIG. 39. […] FIG. 39 graphically illustrates cell cycle analysis of XPA-1 cells treated with the allosteric RAF inhibitor KG5, the microtubule stabilizer paclitaxel, or the ATP-competitive RAF inhibitors sorafenib, L-779450, GW 5074, and ZM-336372. Cells were harvested after 6, 18, 24, 48 and 72 hours and the percentages of cells in G2/M and SubG1 were determined by flow cytometry. Data are representative of three independent experiments.
# Cell cycle analysis was performed by flow cytometry following propidium iodide staining. Briefly, cells were harvested, fixed with ice cold methanol, treated for 45 min with 10 μg/ml of RNase and resuspended in PBS containing 10 μg/ml of PI, and analyzed by flow cytometry. Cell cycle analysis was performed in cells treated for 18 hours with the allosteric RAF inhibitor KG5, the ATP-competitive RAF inhibitors: sorafenib, L-779450, GW5074, and ZM-336372, the MEK inhibitor (PD0325901) at […] concentration or paclitaxel at 100 nM.
# Plk1 = Plk1 activity in tumor cells arrested in pro-metaphase; assay type: cell-based, human; details: compared to cells arrested with nocodazole or paclitaxel
# Description: FIG. 46. CRAF regulates Plk1 activity and localization. FIG. 46(a) Plk1 kinase activity assay performed in WT and CRAF−/− MEFs. Error bars represent s.d. (n=3); * two tailed p value=0.029 using Mann Whitney U test. FIG. 46(b) Immunoblot analysis of XPA-1 cells asynchronous or arrested in mitosis by treatment with KG5, nocodazole or paclitaxel (referred to as Ncdzl and Ptxl respectively). pPlk1 refers to phospho-T210 Plk1 and pHH3 refers to phospho-Histone H3. Data are representative of three independent experiments. FIG. 46(c) Plk1 kinase activity assay performed in HCT-116 cells treated with nocodazole or nocodazole and KG5. Error bars represent s.d. ([…]); * two tailed p value=0.002 using Mann Whitney U test. FIG. 46(d) Immunoblot analysis of CenpF immunoprecipitates from HCT-116 cells untreated or treated with KG5. Data are representative of three independent experiments. FIG. 46(e) Confocal microscopy images of XPA-1 cell at prophase (upper panel), pro-metaphase control untreated (middle panel) or treated with KG5 (lower panel). Cells were stained for phospho-T210 Plk1 (in green), a tubulin (in red) and DNA (TOPRO-3™ in blue). […]
# Plk1 enzymatic activity in cell lysates from WT, CRAF−/− MEFs, HCT-116 cells expressing WT or S338D CRAF and HCT-116 cells treated with the allosteric RAF inhibitor KG5 was determined using the Plk1 kinase kit from MBL and following the manufacturer's protocol.
# FAK or Src = details: cited from earlier work
# CRAF = CRAF (Homo sapiens, UniProt P04049); assay: Phospho-S338 CRAF immunoblot in XPA-1 cells; assay type: cell-based; parameters: total CRAF and total MEK of lysates from XPA-1 cells treated with PD0325901, Sorafenib, L-779450, PLX4720, KG5 or KG1; endogenous in cells; host or cells: XPA-1
# Sequence of CRAF (P04049 whole entry): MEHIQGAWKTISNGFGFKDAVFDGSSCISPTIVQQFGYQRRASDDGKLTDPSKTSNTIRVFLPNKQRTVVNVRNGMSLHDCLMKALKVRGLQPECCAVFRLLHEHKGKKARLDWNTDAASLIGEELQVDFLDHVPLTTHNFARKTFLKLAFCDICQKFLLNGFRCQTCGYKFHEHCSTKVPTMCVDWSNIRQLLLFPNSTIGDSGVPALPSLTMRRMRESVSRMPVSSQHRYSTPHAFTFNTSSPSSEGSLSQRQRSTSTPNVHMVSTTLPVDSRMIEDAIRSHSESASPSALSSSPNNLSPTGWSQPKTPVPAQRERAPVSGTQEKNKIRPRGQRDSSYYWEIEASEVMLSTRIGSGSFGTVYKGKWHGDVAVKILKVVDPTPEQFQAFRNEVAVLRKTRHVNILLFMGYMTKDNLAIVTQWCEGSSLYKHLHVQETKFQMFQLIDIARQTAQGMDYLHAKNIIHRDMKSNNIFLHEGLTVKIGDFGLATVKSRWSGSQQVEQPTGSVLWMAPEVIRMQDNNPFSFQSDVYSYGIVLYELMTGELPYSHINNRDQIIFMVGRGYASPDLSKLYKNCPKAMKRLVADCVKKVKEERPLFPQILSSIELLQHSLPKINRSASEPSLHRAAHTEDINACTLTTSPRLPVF
# Method: FIGS. 6 and 7 illustrate immunoblot analysis of CRAF immunoprecipitated from XPA-1 cells treated with KG5 and KG38.
# FIG. 13 illustrates immunoblot analysis of phospho-5338 CRAF, phospho-MEK, total CRAF and total MEK of lysates from XPA-1 cells treated with PD0325901, Sorafenib, L-779450, PLX4720, KG5 or KG1.
# Immunoprecipitation and Immunoblot Analysis Cells were lysed in either NP40 lysis buffer (150 mM NaCl, 50 mM Tris Base pH 7.4, 1% NP40) or RIPA buffer (50 mM Tris pH 7.4, 100 mM NaCl, 0.1% SDS) supplemented with complete protease inhibitor mixture (Roche), 50 mM NaF and 1 mM Na3VO4 and centrifuged at 13,000×g for 10 min at 4° C. Protein concentration was determined by BCA assay. […] of protein were immunoprecipitated with […] of anti-Flag (Sigma), anti-CRAF (BD Pharmingen), anti-Plk1 (Abcam), anti-γ-Tubulin (sigma) or anti-cenpF (Santa Cruz) antibodies overnight at 4° C. followed by capture with 25 μl of protein A/G (Pierce). Beads were washed five times, eluted in boiling Laemmli buffer, resolved on 10% SDS-PAGE and immunoblotting was performed with anti-Plk1 antibody (Abcam), anti-CRAF antibody (BD Pharmingen), anti-Aurora A (Abcam), anti-phospho-S338 CRAF (Cell Signaling), anti-phospho-T210 Plk1 or anti-phospho-T288 Aurora A (Cell signaling) diluted 1:1000. For immunoblot analysis, […] of protein was boiled in […]
compound,measurement,setting,value
CSc1nc(N)cc(Oc2ccc(-c3nnc(Nc4cccc(C(F)(F)F)c4)[nH]3)cc2)n1 [KG5],growth inhibitory activity against the NCI-60 panel,NCI-60 panel,inhibits the growth of several human cancer cell lines; also recorded: broad growth inhibitory activity
same,rescue of KG5 effect on cell proliferation by ectopic active MEK (G2/M population),"XPA-1 cells; XPA-1 cells transfected with active MEK, 1 μM KG5, 20 hours",failed to rescue
same,arrest at pro-metaphase (confocal microscopy),"XPA-1 cells; XPA-1 cells, 20 hours",arrests cells at pro-metaphase
same,cell cycle arrest in G2/M (flow cytometry),"XPA-1 cells; XPA-1 cells, 20 hours",arrested in G2/M; also recorded: arrests cells in G2/M; also recorded: induces a G2/M arrest followed by cell death
same,cell appearance and mitotic function (bright field images),"XPA-1 cells; XPA-1 cells, 20 hours, same concentration (5 μM, FIG. 38a)",look arrested in mitosis; also recorded: rounded and arrested in mitosis
same,Plk1 activity,Plk1,decreased Plk1 activity
same,integrin-mediated signaling to FAK or Src,FAK or Src,no effect
same,serine 338 phosphorylation on CRAF,CRAF,prevent; also recorded: inhibits phosphorylation of CRAF on serine 338
